{
  "source": "patent US9943529B2",
  "about": "“Methods for reducing cellular proliferation and treating certain diseases” (BRIGHAM YOUNG UNIVERSITY, priority 2013, dated 2018)",
  "key": {"NCI-H322M": {"test_system": "NCI-H322M", "assay": "cells", "conditions": "Homo sapiens, 48 h"}, "OVCAR-3": {"test_system": "OVCAR-3", "assay": "cells", "conditions": "Homo sapiens, OVCAR-3, 48 h"}, "PC-3": {"test_system": "PC-3", "conditions": "48 hours, five 10-fold dilutions starting from 100 μM"}, "NCI-ADR-RES": {"test_system": "NCI-ADR-RES", "assay": "cells", "conditions": "Homo sapiens, 48 h"}, "HCC-2998": {"test_system": "HCC-2998", "assay": "cells", "conditions": "Homo sapiens, HCC 2998, 48 h"}, "IGROV1": {"test_system": "IGROV1", "assay": "cells", "conditions": "Homo sapiens, IGROV-1, 48 h"}, "ACHN": {"test_system": "ACHN", "assay": "cells", "conditions": "Homo sapiens, 48 h"}, "SK-OV-3": {"test_system": "SK-OV-3", "assay": "cells", "conditions": "Homo sapiens, SK-OV-3, 48 h"}, "NCI-H460": {"test_system": "NCI-H460", "assay": "cells", "conditions": "Homo sapiens, NCI-H460, 48 h"}, "SN12C": {"test_system": "SN12C", "assay": "cells", "conditions": "Homo sapiens, 48 h"}, "OVCAR-5": {"test_system": "OVCAR-5", "assay": "cells", "conditions": "Homo sapiens, OVCAR-5, 48 h"}},
  "data": [
    {"smiles": "CCCCCCCCNCCC[C@@H](C)[C@H]1CC[C@H]2[C@@H]3[C@H](OCCCN)C[C@@H]4C[C@H](OCCCN)CC[C@]4(C)[C@H]3C[C@H](OCCCN)[C@]12C", "note": "[CSA-13]", "values": [
      {"measurement": "GI50", "setting": "NCI-H322M", "result": 1360, "unit": "nM"},
      {"measurement": "CC50", "setting": "NCI-H322M; read-out: LC50", "result": "> 100", "unit": "µM"},
      {"measurement": "GI50", "setting": "OVCAR-3", "result": 2240, "unit": "nM"},
      {"measurement": "CC50", "setting": "OVCAR-3; read-out: LC50", "result": 88, "unit": "µM"},
      {"measurement": "TGI", "setting": "PC-3", "result": ">100", "unit": "µM"},
      {"measurement": "GI50", "setting": "NCI-ADR-RES", "result": 1830, "unit": "nM"},
      {"measurement": "CC50", "setting": "NCI-ADR-RES; read-out: LC50", "result": 36.5, "unit": "µM"},
      {"measurement": "GI50", "setting": "HCC-2998", "result": 1510, "unit": "nM"},
      {"measurement": "CC50", "setting": "HCC-2998; read-out: LC50", "result": 13.3, "unit": "µM"},
      {"measurement": "GI50", "setting": "IGROV1", "result": 1440, "unit": "nM"},
      {"measurement": "CC50", "setting": "IGROV1; read-out: LC50", "result": 8.67, "unit": "µM"},
      {"measurement": "GI50", "setting": "ACHN", "result": 1480, "unit": "nM"},
      {"measurement": "CC50", "setting": "ACHN; read-out: LC50", "result": 9.17, "unit": "µM"},
      {"measurement": "GI50", "setting": "SK-OV-3", "result": 3.45, "unit": "µM"},
      {"measurement": "CC50", "setting": "SK-OV-3; read-out: LC50", "result": 93.1, "unit": "µM"},
      {"measurement": "GI50", "setting": "NCI-H460", "result": 1210, "unit": "nM"},
      {"measurement": "CC50", "setting": "NCI-H460; read-out: LC50", "result": 15.5, "unit": "µM"},
      {"measurement": "GI50", "setting": "SN12C", "result": 571, "unit": "nM"},
      {"measurement": "CC50", "setting": "SN12C; read-out: LC50", "result": 27, "unit": "µM"},
      {"measurement": "GI50", "setting": "OVCAR-5", "result": 1550, "unit": "nM"},
      {"measurement": "CC50", "setting": "OVCAR-5; read-out: LC50", "result": 58.4, "unit": "µM"}
    ]}
  ]
}
